Assay [1] concerns MUTU-I. The assay can be described thus: Induction of apoptosis in human MUTU-I cells assessed as PARP cleavage by Western blotting analysis. The format is functional, cell-based. (In general: In western blotting, separated proteins are transferred to a membrane and probed.)
Assay [2] can be described thus: (§1) Induction of apoptosis in human MUTU-I cells assessed as cell death at 2.5 uM after 24 hrs by flow cytometry (reference value: 3.7 +/- 0.4%). The format is functional. (In general: In flow cytometry, cells or beads pass a laser one at a time.)
Assay [3] deals with DG-75. The assay can be described thus: Induction of apoptosis in human DG75 cells assessed as cell death at 2.5 uM after 24 hrs by flow cytometry (reference value: 0.8 +/- 0.25%). The format is functional.
For assay [4], the system named is HeLa. The assay can be described thus: Induction of apoptosis in human HeLa cells assessed as cell death at 2.5 uM after 24 hrs by flow cytometry (reference value: 7 +/- 1.9%). The format is functional.
For assay [5], the system named is DG-75. The assay can be described thus: Induction of apoptosis in human DG75 cells assessed as cell death at 2.5 uM in presence of NAC ROS inhibitor. The format is functional, cell-based.
For assay [6], the system named is HeLa. The assay can be described thus: Induction of apoptosis in human HeLa cells assessed as increase in caspase 3/7 activation by luminescence plate reader. The format is functional, cell-based.
In assay [7] the test system is HeLa. The assay can be described thus: Induction of apoptosis in human HeLa cells assessed as PARP cleavage by Western blotting analysis. The format is functional, cell-based.
The subject of assay [8] is DG-75. The assay can be described thus: Induction of apoptosis in human DG75 cells assessed as increase in caspase 3/7 activation by luminescence plate reader. The format is functional, cell-based.
Assay [9] has as its target Sodium-dependent serotonin transporter (Homo sapiens, UniProt P31645). The assay can be described thus: Inhibition of human SERT expressed in HEK293-MSR cells by 5-HT uptake assay. The format is cell-based.
The test system of assay [10] is HeLa. The assay can be described thus: Reduction in cell viability of human HeLa cells after 24 hrs by Alamar blue viability assay. The format is functional, cell-based.
Assay [11] relates to HeLa. The assay can be described thus: Induction of apoptosis in human HeLa cells assessed as increase in intracellular cysteine proteases. The format is functional, cell-based.
The test system of assay [12] is HeLa. The assay can be described thus: Induction of apoptosis in human HeLa cells assessed as cell death at 2.5 uM in presence of NAC ROS inhibitor. The format is functional, cell-based.
Assay [13] has as its system DG-75. The assay can be described thus: Induction of apoptosis in human DG75 cells assessed as PARP cleavage by Western blotting analysis. The format is functional, cell-based.
For assay [14], the system named is DG-75. The assay can be described thus: Reduction in cell viability of human DG75 cells after 24 hrs by Alamar blue viability assay. The format is functional, cell-based. The note with it: DG-75, 24 h. On the technique in general: The colour change of resazurin is a common sign of viable cells or microbes.
Assay [15] deals with MUTU-I. The assay can be described thus: Induction of apoptosis in human MUTU-I cells assessed as cell death at 2.5 uM in presence of NAC ROS inhibitor. The format is functional, cell-based.
The test system of assay [16] is MUTU-I. The assay can be described thus: Induction of apoptosis in human MUTU-I cells assessed as cell death at 2.5 uM after 2 hrs by flow cytometry. The format is functional, cell-based.
Assay [17] deals with MUTU-I. The assay can be described thus: Induction of apoptosis in human MUTU-I cells assessed as decrease in cells at G2/M phase measured at 2.5 uM after 24 hrs by propidium iodide assay. The format is functional, cell-based.
Assay [18] deals with DG-75. The assay can be described thus: Induction of apoptosis in human DG75 cells assessed as cell death at 2.5 uM measured after 24 hrs by flow cytometry. The format is functional, cell-based.
The nature of assay [19]: Reduction in cell viability of human MUTU-I cells after 24 hrs by Alamar blue viability assay. The format is functional, cell-based.
For assay [20], the system named is HeLa. The assay can be described thus: Induction of apoptosis in human HeLa cells assessed as decrease in cells at G2/M phase measured at 2.5 uM after 24 hrs by propidium iodide assay. The format is functional, cell-based.
Assay [21] concerns MUTU-I. The assay can be described thus: Induction of apoptosis in human MUTU-I cells assessed as increase in intracellular cysteine proteases. The format is functional, cell-based.
Assay [22] deals with HeLa. The assay can be described thus: Induction of apoptosis in human HeLa cells assessed as cell death at 2.5 uM after 8 hrs by flow cytometry. The format is functional, cell-based.
The subject of assay [23] is DG-75. The assay can be described thus: Induction of apoptosis in human DG75 cells assessed as decrease in cells at G2/M phase measured at 2.5 uM after 24 hrs by propidium iodide assay. The format is functional, cell-based.
The subject of assay [24] is MUTU-I. The assay can be described thus: Induction of apoptosis in human MUTU-I cells assessed as increase in caspase 3/7 activation by luminescence plate reader. The format is functional, cell-based.
The test system of assay [25] is MUTU-I. Described as §1. The format is functional.
Assay [26] concerns DG-75. The assay can be described thus: Induction of apoptosis in human DG75 cells assessed as increase in cells at G2/M phase measured at 2.5 uM after 24 hrs by propidium iodide assay. The format is functional, cell-based.

The source made the active and inactive calls. No cut-off for these calls is given here.

Sequence of Sodium-dependent serotonin transporter (P31645 whole entry): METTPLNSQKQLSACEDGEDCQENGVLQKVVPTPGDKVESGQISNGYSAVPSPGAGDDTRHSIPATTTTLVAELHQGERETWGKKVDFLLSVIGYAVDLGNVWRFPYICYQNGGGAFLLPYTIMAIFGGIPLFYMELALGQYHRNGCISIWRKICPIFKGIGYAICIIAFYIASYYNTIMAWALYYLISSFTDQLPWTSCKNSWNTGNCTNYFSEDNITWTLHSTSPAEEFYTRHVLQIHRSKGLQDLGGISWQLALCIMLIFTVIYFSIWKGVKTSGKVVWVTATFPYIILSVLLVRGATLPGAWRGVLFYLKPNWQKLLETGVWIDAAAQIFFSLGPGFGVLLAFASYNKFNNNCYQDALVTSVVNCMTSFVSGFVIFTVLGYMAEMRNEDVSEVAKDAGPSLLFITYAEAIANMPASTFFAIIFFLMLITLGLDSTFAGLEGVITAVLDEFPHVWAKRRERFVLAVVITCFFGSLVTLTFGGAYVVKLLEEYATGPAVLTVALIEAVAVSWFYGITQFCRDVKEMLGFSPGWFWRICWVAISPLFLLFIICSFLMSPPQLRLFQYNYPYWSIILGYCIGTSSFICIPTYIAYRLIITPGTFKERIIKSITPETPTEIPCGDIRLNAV

In general, IC50 refers to the concentration that inhibits the measured activity by half. As for `CN(CCCN1c2ccccc2CCc2ccccc21)CCOCCN(C)CCCN1c2ccccc2CCc2ccccc21`, the result in assay [1], in assay [5], in assay [6], in [7], in assay [11] and in assay [12] was Active. Also, the result in assay [15], in [16], in [17], in assay [18], in assay [20] and in [21] was Active. In addition, the outcome in [22], in assay [23] and in [24] was Active. For the same compound, the Activity in [2] is 66.6%; in [3] it was 22.8%; in assay [4], 61.7%. Further, the result in assay [8] and in assay [13] was inactive. Further, the IC50 is 6 µM in assay [9], 1.74 µM in assay [10], 1.89 µM in assay [14] and 1.05 µM in [19].

With `CNCCCN1c2ccccc2CCc2ccccc21` [DESIPRAMINE], the values for the IC50 in [10], in [14] and in assay [19] were 17.8 µM, 39.8 µM and 7.94 µM, respectively. For the same compound, the outcome in [17], in assay [20] and in assay [23] was inactive.

As to `CN(CCCN1c2ccccc2CCc2ccccc21)C(=O)COCCOCC(=O)N(C)CCCN1c2ccccc2CCc2ccccc21`, the IC50 was found to be 46 µM in assay [9], 22.9 µM in assay [10], 18.6 µM in assay [14] and 5.75 µM in [19]. Also, the outcome in assay [17], in [20] and in assay [23] was inactive.

Consider `CN(C)CCCN1c2ccccc2CCc2ccccc21` [IMIPRAMINE], for which the IC50 was 40.7 µM in assay [10], more than 50 µM in assay [14] and 14.1 µM in assay [19]. Moreover, the result in [17], in assay [20] and in [23] was inactive.

Consider `CN(CCCN1c2ccccc2CCc2ccccc21)CCOCCOCCN(C)CCCN1c2ccccc2CCc2ccccc21`, for which the result in [1], in assay [5], in assay [6], in assay [7], in [11] and in assay [12] was Active. In addition, the result in assay [15], in assay [16], in [17], in assay [18], in [20] and in assay [21] was Active. In addition, the result in [22], in assay [23] and in [24] was Active. Moreover, the Activity in assay [2] stood at 56.2%; in [3], 40.9%; in assay [4], 44.4%. Besides, the result in assay [8] and in assay [13] was inactive. The IC50 in assay [9] came out at 4.8 µM; in assay [10] it was 1.41 µM; in [14], 1.51 µM; in assay [19] it was 0.62 µM.

Consider `CN(CCCN1c2ccccc2CCc2ccccc21)CCOCCOCCOCCN(C)CCCN1c2ccccc2CCc2ccccc21`, for which the result in assay [1], in assay [5], in [6], in assay [7], in assay [11] and in assay [12] was Active. Moreover, the outcome in assay [15], in assay [16], in assay [17], in [18], in assay [20] and in assay [21] was Active. Further, the result in [22], in assay [23] and in assay [24] was Active. Besides, the Activity amounted to 46.3% in [2], 54.6% in assay [3] and 46% in [4]. Besides, the outcome in assay [8] and in assay [13] was inactive. For the same compound, the IC50 in assay [9] was 5.5 µM; in assay [10], 1.58 µM; in [14], 1.91 µM; in [19], 1.15 µM.

On to `CC(=O)O[C@H]1C(=O)[C@@]2(C)[C@H]([C@H](OC(=O)c3ccccc3)[C@]3(O)C[C@H](OC(=O)[C@H](O)[C@@H](NC(=O)c4ccccc4)c4ccccc4)C(C)=C1C3(C)C)[C@]1(OC(C)=O)CO[C@@H]1C[C@@H]2O`, for which the result in [25], in assay [4] and in [26] was Active. Moreover, in assay [3], the outcome was inactive.

These data come from ChEMBL document CHEMBL2331299, “Basic N-interlinked imipramines show apoptotic activity against malignant cells including Burkitt's lymphoma” (Bioorg Med Chem Lett, 2013).
